Assay results from patent US5439932A, “Substituted amine derivatives having anti-hyperlipemia activity” (Banyu Pharmaceutical Co., Ltd., priority 1990, dated 1995).
Structures can show the parent of a compound that is named as a salt.

Target: T1, Human squalene epoxidase (Homo sapiens, UniProt Q14534)
T1 construct: endogenous in cells; host or cells: Hep-G2 (human hepatoma) cells, microsomes solubilized with Triton X-100
Experiment: Human squalene epoxidase inhibition action
Assay type: biochemical
Details: solubilized squalene epoxidase fraction from human hepatoma (Hep-G2) cells; 8 μM 3H-squalene; 37° C., 60 minutes; pH 7.5; read-out: 50% inhibitory concentration (IC50)
Description: Squalene epoxidase inhibition action (1) Preparation of squalene epoxidase Human squalene epoxidase is prepared based on the method disclosed in J. Biol. Chem. 245, 1670 (1970) and ibid. 250, 1572 (1975). Namely, human hepatoma (Hep-G2) cells are cultured at 37° C. under 5% carbon dioxide-mixed air. After completion of the culture the cells are scraped and recovered by centrifugation. The cells are suspended (1×10^8 cells/ml) in a 0.1M Tris-HCl buffer (pH 7.5), the suspension is homogenized and centrifuged at 9,750×g for 10 minutes, and the sediment is washed with a 0.1M Tris-HCl buffer (pH 7.5) and centrifuged at 105,000×g for 1 hour. […] After this solubilization treatment, the solution is diluted with 1 mM EDTA and 1 mM dithiothreitol so that the Triton X-100 concentration becomes 0.125%, and then centrifuged at 105,000×g for 1 hour. The resulting supernatant is used in the later test as a squalene epoxidase fraction. (2) Method for measurement of squalene epoxidase activity Measurement of human squalene epoxidase activity is carried out based on the method disclosed in J. Biol. Chem. 245, 1670 (1970). Namely, […] of a dimethylsulfoxide solution of a test drug is added to a solution consisting of 0.2 ml of the squalene epoxidase fraction prepared in (1) [Protein amount 0.4 mg, 0.1% Triton X-100, […] buffer (pH 7.5)], 100 μM FAD, 1 mM NADPH, 1 mM EDTA and 8 μM ^3 H-squalene-Tween 80 suspension to make the total volume 0.3 ml, and the mixture is subjected to shaking reaction at 37° C. for 60 minutes. 0.3 ml of a 10% potassium hydroxide-methanol solution is added to stop the reaction, and the mixture is heated at 75° C. for 1 hour. Then, after extraction of the nonsaponified substances, the extract is concentrated to dryness in a stream of nitrogen. […] The position of the formed ^3 H-squalene-2,3-epoxide on TLC is ascertained using as a marker ergosterol acetate and the ^3 H-squalene-2,3-epoxidepart of TLC is cut out. The TLC piece is immersed in a toluene series scintillator and measurement is carried out using a liquid scintillation counter. By this, 50% inhibitory concentrations (IC50 values) of compounds of the invention on squalene epoxidase are determined, and the results are shown in the following table.

T1 sequence (Q14534 whole entry): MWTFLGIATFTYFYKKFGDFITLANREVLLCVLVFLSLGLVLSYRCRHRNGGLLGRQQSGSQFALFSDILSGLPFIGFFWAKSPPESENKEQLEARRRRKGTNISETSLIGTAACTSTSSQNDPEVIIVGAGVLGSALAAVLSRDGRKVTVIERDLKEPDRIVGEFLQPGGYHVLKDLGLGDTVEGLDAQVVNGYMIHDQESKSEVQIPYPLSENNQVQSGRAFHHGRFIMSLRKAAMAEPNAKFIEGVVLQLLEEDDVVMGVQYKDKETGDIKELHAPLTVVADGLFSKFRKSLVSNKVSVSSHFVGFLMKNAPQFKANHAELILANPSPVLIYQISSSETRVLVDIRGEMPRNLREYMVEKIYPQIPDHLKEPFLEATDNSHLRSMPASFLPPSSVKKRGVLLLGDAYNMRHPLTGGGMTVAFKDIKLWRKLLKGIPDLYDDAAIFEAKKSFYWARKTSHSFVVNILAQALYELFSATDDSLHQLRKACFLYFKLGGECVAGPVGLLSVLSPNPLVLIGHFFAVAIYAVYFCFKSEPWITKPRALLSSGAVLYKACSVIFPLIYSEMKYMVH

| IC50 [nM] | Compound |
| --- | --- |
| 0.8 | CCN(C/C=C/C#CC(C)(C)OC)Cc1ccc(COC/C=C/c2ccsc2)o1 [Example 30, (E,E)-N-ethyl-N-(6-methoxy-6-methyl-2-hepten-4-ynyl)-5-[3-(3-thienyl)-2-propenyloxymethyl]-2-furylmethylamine hydrochloride] |
| 0.3 | CCN(C/C=C/C#CC(C)(C)OC)Cc1cccc(COC/C=C/c2ccsc2)c1 [Example 7, (E,E)-N-ethyl-N-7(6-methoxy-6-methyl-2-hepten-4-ynyl)-3-3-(3-thienyl)-2-propenyloxymethyl]benzylamine hydrochloride] |
| 0.4 | CCN(C/C=C/C#CC(C)(C)CC)CCOCCOc1cccc(-c2ccsc2)c1 [Example 35, (E)-N-ethyl-N-(6,6-dimethyl-2-octen-4-ynyl)-2-[2-[3-(3-thienyl)phenoxy]ethoxy]ethylamine hydrochloride] |
| 0.5 | CCN(CC#CC#CC(C)(C)OC)Cc1ccc(/C=C/COCc2ccsc2)o1 [Example 48, (E)-N-ethyl-N-(6-methoxy-6-methyl-2,4-heptadiynyl)-5-[3-(3-thienylmethoxy)-1-propenyl]-2-furylmethylamine] |
| 0.2 | CN(C/C=C/C#CC(C)(C)C)Cc1ccc(COC/C=C/c2ccsc2)o1 [Example 38, (E,E)-N-methyl-N-(6,6-dimethyl-2-hepten-4-ynyl)-5-[3-(3-thienyl)-2-propenyloxymethyl]-2-furylmethylamine] |
| 0.4 | CCN(CC#C/C=C/C(C)(C)C)Cc1ccc(COC/C=C/c2ccsc2)o1 [Example 46, (E,E)-N-ethyl-N-(6,6-dimethyl-4-hepten-2-ynyl)-5-[3-(3-thienyl)-2-propenyloxymethyl]-2-furylmethylamine] |
